Data: PMC9203742 (Nature Communications, 2022)
Several values for one entry are separate records, joined by “and”; a condition that tells them apart may be missing. Equal values may be shown once.

Legend:
Type in all cases: cell-based, mouse
[1] = test system: GFP-positive Purkinje cells infected with AAV-L7-mGlu1^CBC; experiment: chemLTD recording in GFP-positive Purkinje cells, slices infected with AAV-L7-mGlu1^CBC; details: for PF-EPSC amplitude normalized to time 0, individual Purkinje cells / PF-EPSC amplitude normalized to time 0, mean of cells: AAV-L7-mGlu1CBC
[2] = test system: GFP-positive Purkinje cells infected with AAV-L7-mGlu1^WT; experiment: chemLTD recording in GFP-positive Purkinje cells, slices infected with AAV-L7-mGlu1^WT; details: for PF-EPSC amplitude normalized to time 0, individual Purkinje cells / PF-EPSC amplitude normalized to time 0, mean of cells: AAV-L7-mGlu1WT
[3] = test system: MLIs surrounded by mGlu1(N264H)-expressing Purkinje cells (AAV-L7-mGlu1^CBC); experiment: sAP-mediated currents (firing rate) of MLIs in slices infected with AAV-L7-mGlu1^CBC; details: 10 μM Pd(sulfo-bpy); P = 0.293
Protocol: To monitor the excitability of MLIs, sAP-mediated current responses were extracellulary recorded by a loose cell-attached voltage-clamp at a holding potential of 0 mV. Glass electrodes used for cell-attached recordings had resistances of 3–5 MΩ when filled with ACSF. The current recordings from AAV-infected cells were performed 1−2 weeks after infection. The EPSCs and sAP-mediated currents were recorded using an Axopatch 200B amplifier (Molecular Devices), and the pClamp system (version 9.2; Molecular Devices) was used for data acquisition and analysis. The signals were filtered at 1 kHz and digitized at 4 kHz for the evoked EPSCs and 10 kHz for the sAP-mediated currents.
Injection of viral solutions was performed as described previously with slight modifications. Briefly, under deep anesthesia, with an intraperitoneal injection of medetomidine (0.3 mg/kg), midazolam (4.0 mg/kg), and butorphanol (5.0 mg/kg), 4 µL of the solutions containing AAV mixture were directly injected into the vermis of cerebellar lobules V-VIII (200-300 µm in depth, 12 µL/h in rate) of WT mice (C57BL/6J, P20-P30) using glass pipette (30–40 µm in diameter) and microinjector (Nanoliter; World Precision Instruments). In all, 1−2 week after injection, the mice were used for each experiment.

[4] = 1 μM Pd(sulfo-bpy), t = 31−35 min

Compound: Cc1ccnc(-c2cc(COCCCS(=O)(=O)[O-])ccn2)c1.[Cl][Pd][Cl].[Na+] [Pd(sulfo-bpy)]
- chemLTD: normalized PF-EPSC amplitude [1, 4]: 66 ± 5%
- PF-EPSC amplitude normalized to time 0, individual Purkinje cells ([1]; Time 11 min): 0.7232 and 0.9829 and 0.3767 and 0.7388 and 0.7918 and 0.8459 and 0.9915
- PF-EPSC amplitude normalized to time 0, mean of cells ([1]; Time 11 min): 0.7787
- PF-EPSC amplitude normalized to time 0, individual Purkinje cells ([1]; Time 12 min): 0.6425 and 0.801 and 0.5915 and 0.6003 and 0.6904 and 0.8371 and 0.8565
- PF-EPSC amplitude normalized to time 0, mean of cells ([1]; Time 12 min): 0.717
- PF-EPSC amplitude normalized to time 0, individual Purkinje cells ([1]; Time 13 min): 0.6471 and 0.7787 and 0.7013 and 0.6809 and 0.7803 and 0.6727 and 0.8538
- PF-EPSC amplitude normalized to time 0, mean of cells ([1]; Time 13 min): 0.7307
- PF-EPSC amplitude normalized to time 0, individual Purkinje cells ([1]; Time 14 min): 0.6499 and 0.8303 and 0.7622 and 0.6113 and 0.7456 and 0.6953 and 0.8046
- PF-EPSC amplitude normalized to time 0, mean of cells ([1]; Time 14 min): 0.7285
- PF-EPSC amplitude normalized to time 0, individual Purkinje cells ([1]; Time 15 min): 0.6409 and 0.6767 and 0.8117 and 0.6223 and 0.7031 and 0.7146 and 0.8496
- PF-EPSC amplitude normalized to time 0, mean of cells ([1]; Time 15 min): 0.717
- PF-EPSC amplitude normalized to time 0, individual Purkinje cells ([1]; Time 16 min): 0.6376 and 0.7978 and 1.028 and 0.6558 and 0.8297 and 0.5765 and 0.8295
- PF-EPSC amplitude normalized to time 0, mean of cells ([1]; Time 16 min): 0.765
- PF-EPSC amplitude normalized to time 0, individual Purkinje cells ([1]; Time 17 min): 0.5747 and 0.6569 and 0.9755 and 0.6298 and 0.8796 and 0.5758 and 0.8309
- PF-EPSC amplitude normalized to time 0, mean of cells ([1]; Time 17 min): 0.7319
- PF-EPSC amplitude normalized to time 0, individual Purkinje cells ([1]; Time 18 min): 0.6181 and 0.7827 and 0.9415 and 0.633 and 0.8865 and 0.5391 and 0.791
- PF-EPSC amplitude normalized to time 0, mean of cells ([1]; Time 18 min): 0.7417
- PF-EPSC amplitude normalized to time 0, individual Purkinje cells ([1]; Time 19 min): 0.6525 and 0.7374 and 0.8732 and 0.5834 and 0.9022 and 0.5765 and 0.7947
- PF-EPSC amplitude normalized to time 0, mean of cells ([1]; Time 19 min): 0.7314
- PF-EPSC amplitude normalized to time 0, individual Purkinje cells ([1]; Time 20 min): 0.6393 and 0.699 and 0.8317 and 0.5962 and 0.9401 and 0.5543 and 0.7516
- PF-EPSC amplitude normalized to time 0, mean of cells ([1]; Time 20 min): 0.716
- PF-EPSC amplitude normalized to time 0, individual Purkinje cells ([1]; Time 21 min): 0.6574 and 0.7237 and 1.073 and 0.5004 and 0.9213 and 0.5453 and 0.8183
- PF-EPSC amplitude normalized to time 0, mean of cells ([1]; Time 21 min): 0.7484
- PF-EPSC amplitude normalized to time 0, individual Purkinje cells ([1]; Time 22 min): 0.698 and 0.6854 and 0.7706 and 0.5876 and 1.007 and 0.5965 and 0.7681
- PF-EPSC amplitude normalized to time 0, mean of cells ([1]; Time 22 min): 0.7305
- PF-EPSC amplitude normalized to time 0, individual Purkinje cells ([1]; Time 23 min): 0.6936 and 0.7382 and 0.9273 and 0.5926 and 0.9601 and 0.5241 and 0.7745
- PF-EPSC amplitude normalized to time 0, mean of cells ([1]; Time 23 min): 0.7443
- PF-EPSC amplitude normalized to time 0, individual Purkinje cells ([1]; Time 24 min): 0.6834 and 0.653 and 0.9054 and 0.6969 and 0.9426 and 0.569 and 0.7678
- PF-EPSC amplitude normalized to time 0, mean of cells ([1]; Time 24 min): 0.7455
- PF-EPSC amplitude normalized to time 0, individual Purkinje cells ([1]; Time 25 min): 0.6421 and 0.6906
- PF-EPSC amplitude normalized to time 0, mean of cells ([1]; Time 25 min): 0.7344
- PF-EPSC amplitude normalized to time 0, mean of cells ([1]; Time 26 min): 0.7041
- PF-EPSC amplitude normalized to time 0, mean of cells ([1]; Time 27 min): 0.6979
- PF-EPSC amplitude normalized to time 0, mean of cells ([1]; Time 28 min): 0.6908
- PF-EPSC amplitude normalized to time 0, mean of cells ([1]; Time 29 min): 0.7115
- PF-EPSC amplitude normalized to time 0, mean of cells ([1]; Time 30 min): 0.7
- PF-EPSC amplitude normalized to time 0, mean of cells ([1]; Time 31 min): 0.6852
- PF-EPSC amplitude normalized to time 0, mean of cells ([1]; Time 32 min): 0.6868
- PF-EPSC amplitude normalized to time 0, mean of cells ([1]; Time 33 min): 0.6788
- PF-EPSC amplitude normalized to time 0, mean of cells ([1]; Time 34 min): 0.6319
- PF-EPSC amplitude normalized to time 0, mean of cells ([1]; Time 35 min): 0.6255
- chemLTD: normalized PF-EPSC amplitude [2, 4]: 88 ± 7%
- PF-EPSC amplitude normalized to time 0, individual Purkinje cells ([2]; Time 11 min): 0.5479 and 0.8947 and 0.9287 and 0.866 and 0.7568 and 0.3484 and 0.5317
- PF-EPSC amplitude normalized to time 0, mean of cells ([2]; Time 11 min): 0.6963
- PF-EPSC amplitude normalized to time 0, individual Purkinje cells ([2]; Time 12 min): 0.6486 and 0.7811 and 0.7919 and 0.9348 and 0.7682 and 0.482 and 0.6188
- PF-EPSC amplitude normalized to time 0, mean of cells ([2]; Time 12 min): 0.7179
- PF-EPSC amplitude normalized to time 0, individual Purkinje cells ([2]; Time 13 min): 0.8009 and 0.7991 and 0.7966 and 0.9028 and 0.809 and 0.4767 and 0.682
- PF-EPSC amplitude normalized to time 0, mean of cells ([2]; Time 13 min): 0.7525
- PF-EPSC amplitude normalized to time 0, individual Purkinje cells ([2]; Time 14 min): 0.8571 and 0.8119 and 0.8301 and 0.9359 and 0.8385 and 0.4849 and 0.6984
- PF-EPSC amplitude normalized to time 0, mean of cells ([2]; Time 14 min): 0.7795
- PF-EPSC amplitude normalized to time 0, individual Purkinje cells ([2]; Time 15 min): 0.8756 and 0.8988 and 0.8051 and 0.8932 and 0.8452 and 0.5102 and 0.7309
- PF-EPSC amplitude normalized to time 0, mean of cells ([2]; Time 15 min): 0.7942
- PF-EPSC amplitude normalized to time 0, individual Purkinje cells ([2]; Time 16 min): 0.9159 and 0.9928 and 0.8396 and 0.8655 and 0.841 and 0.5112 and 0.7755
- PF-EPSC amplitude normalized to time 0, mean of cells ([2]; Time 16 min): 0.8202
- PF-EPSC amplitude normalized to time 0, individual Purkinje cells ([2]; Time 17 min): 0.9971 and 1.069 and 0.8238 and 0.8887 and 0.8439 and 0.5087 and 0.7457
- PF-EPSC amplitude normalized to time 0, mean of cells ([2]; Time 17 min): 0.8396
- PF-EPSC amplitude normalized to time 0, individual Purkinje cells ([2]; Time 18 min): 1.0288 and 1.119 and 0.837 and 0.8899 and 0.9043 and 0.5561 and 0.7949
- PF-EPSC amplitude normalized to time 0, mean of cells ([2]; Time 18 min): 0.8757
- PF-EPSC amplitude normalized to time 0, individual Purkinje cells ([2]; Time 19 min): 0.8877 and 1.0703 and 0.9503 and 0.893 and 0.9667 and 0.5652 and 0.7658
- PF-EPSC amplitude normalized to time 0, mean of cells ([2]; Time 19 min): 0.8713
- PF-EPSC amplitude normalized to time 0, individual Purkinje cells ([2]; Time 20 min): 1.078 and 1.198 and 0.844 and 0.865 and 1.008 and 0.5754 and 0.7572
- PF-EPSC amplitude normalized to time 0, mean of cells ([2]; Time 20 min): 0.9036
- PF-EPSC amplitude normalized to time 0, individual Purkinje cells ([2]; Time 21 min): 0.9655 and 1.126 and 0.8812 and 0.8773 and 1.052 and 0.5885 and 0.7582
- PF-EPSC amplitude normalized to time 0, mean of cells ([2]; Time 21 min): 0.8926
- PF-EPSC amplitude normalized to time 0, individual Purkinje cells ([2]; Time 22 min): 1.0065 and 1.121 and 0.9135 and 0.8951 and 1.02 and 0.5416 and 0.8122
- PF-EPSC amplitude normalized to time 0, mean of cells ([2]; Time 22 min): 0.9014
- PF-EPSC amplitude normalized to time 0, individual Purkinje cells ([2]; Time 23 min): 1.013 and 1.096 and 0.8837 and 0.8809 and 1.04 and 0.5776 and 0.8487
- PF-EPSC amplitude normalized to time 0, mean of cells ([2]; Time 23 min): 0.9057
- PF-EPSC amplitude normalized to time 0, individual Purkinje cells ([2]; Time 24 min): 1.0609 and 0.96 and 0.924 and 0.9136 and 1.045 and 0.5613 and 0.9388
- PF-EPSC amplitude normalized to time 0, mean of cells ([2]; Time 24 min): 0.9148
- PF-EPSC amplitude normalized to time 0, individual Purkinje cells ([2]; Time 25 min): 1.0868 and 0.9289
- PF-EPSC amplitude normalized to time 0, mean of cells ([2]; Time 25 min): 0.9269
- PF-EPSC amplitude normalized to time 0, mean of cells ([2]; Time 26 min): 0.8953
- PF-EPSC amplitude normalized to time 0, mean of cells ([2]; Time 27 min): 0.9119
- PF-EPSC amplitude normalized to time 0, mean of cells ([2]; Time 28 min): 0.9459
- PF-EPSC amplitude normalized to time 0, mean of cells ([2]; Time 29 min): 0.9165
- PF-EPSC amplitude normalized to time 0, mean of cells ([2]; Time 30 min): 0.8807
- PF-EPSC amplitude normalized to time 0, mean of cells ([2]; Time 31 min): 0.8545
- PF-EPSC amplitude normalized to time 0, mean of cells ([2]; Time 32 min): 0.8798
- PF-EPSC amplitude normalized to time 0, mean of cells ([2]; Time 33 min): 0.8652
- PF-EPSC amplitude normalized to time 0, mean of cells ([2]; Time 34 min): 0.8955
- PF-EPSC amplitude normalized to time 0, mean of cells ([2]; Time 35 min): 0.9028
- PF-EPSC amplitude normalized to time 0, mean of cells ([2]; Time 36 min): 0.8988
- PF-EPSC amplitude normalized to time 0, mean of cells ([2]; Time 37 min): 0.876
- Firing rate of MLIs [3]: failed to increase
